# Measurements as given in the supplement of paper PMC11208160.
# Assay: recombinant UMI read abundance after kanamycin selection (control-corrected) (log10(CPM+1)); higher = more efficient recombination; extreme values may be limits of the assay; sequences stand for … in AGTGCAGAGAAAATCGGCCAGTTTTCTCTGCCTGCAGTCCGCATGCCGTGGGACCCCTTGGGTTCTAACCTGTTGCCTAGATTTATGCAGCGGACTGCCTTTCTCCCAAAGTGATAAACCGG…AGGTTGGTTTCACT; site = the 11-nt donor
# How it was run: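 The measure is log10(CPM+1) for recombinant UMIs. These were PCR-amplified across the donor–target junction and sequenced after Escherichia coli carrying a donor and donor-binding-loop pair library and a target plasmid with T7-inducible IS621 bridge recombinase was plated on IPTG (0.07 mM) plus kanamycin or unselected. CPM were averaged over two replicates and scaled by control-derived factors.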
# 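Also: IS621 bridge recombinase in Escherichia coli cells against a fixed T5 target plasmid.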
row,Sequence,recombinant UMI read abundance (log10)
1,TAATGCGCATGGACCGGTTTTCCCGGTAATCCGTATTTGGG (site TAATGCGCTCC),0
2,TAATGCGCATGGACCGGTTTTCCCGGTAATCCGTATTTGGG (site TAATGGGCTCC),0.0249
3,TAATGCGCATGGACCGGTTTTCCCGGTAATCCGTATTTGGG (site TAATGTGCTCC),0.00404
4,TAATGGCCATGGACCGGTTTTCCCGGTAATCCGTATTTGCA (site AAATGGCCTTG),0.00563
5,TAATGGCCATGGACCGGTTTTCCCGGTAATCCGTATTTGCA (site CAATGGCCTTG),0.089
6,TAATGGCCATGGACCGGTTTTCCCGGTAATCCGTATTTGCA (site GAATGGCCTTG),0.00525
7,TAATGGCCATGGACCGGTTTTCCCGGTAATCCGTATTTGCA (site TAATGGCCTTG),0.0063
8,TAATTCGCATGGACCGGTTTTCCCGGTAATCCGTATTTGTG (site TAATTCGCTCA),0.0276
9,TACACCTCATGGACCGGTTTTCCCGGTAATCCGTATTTGAA (site TACACCTCTTT),0.804
10,TACACCTCATGGACCGGTTTTCCCGGTAATCCGTATTTGCA (site TACACCTCTTG),2.35
11,TACAGCCCATGGACCGGTTTTCCCGGTAATCCGTATTTGGA (site TACAGCCCTTC),0.0282
12,TACATCCCATGGACCGGTTTTCCCGGTAATCCGTATTTGAG (site TACATCCCTCT),0.0123
13,TACATGACATGGACCGGTTTTCCCGGTAATCCGTATTTGCG (site TACATGACTCG),1.12
14,TACATGACATGGACCGGTTTTCCCGGTAATCCGTATTTGTG (site TACATGACTCA),0.61
15,TACATGTCATGGACCGGTTTTCCCGGTAATCCGTATTTGTC (site TACATGTCTGA),1.56
16,TACCCACCATGGACCGGTTTTCCCGGTAATCCGTATTTGAC (site TACCCACCTGT),0
17,TACCGTTCATGGACCGGTTTTCCCGGTAATCCGTATTTGTT (site TACCGTTCTAA),0.218
18,TACCTCCCATGGACCGGTTTTCCCGGTAATCCGTATTTGGC (site TACCTCCCTGC),0
19,TACCTGCCATGGACCGGTTTTCCCGGTAATCCGTATTTGTA (site TACCTGCCTTA),0.0209

row,Sequence,recombinant UMI read abundance (log10)
1,TACCTTACATGGACCGGTTTTCCCGGTAATCCGTATTTGGA (site TACCTTACTTC),0.0267
2,TACGCACCATGGACCGGTTTTCCCGGTAATCCGTATTTGAG (site TACGCACCTCT),0.0119
3,TACGGATCATGGACCGGTTTTCCCGGTAATCCGTATTTGTA (site TACGGATCTTA),0.989
4,TACGGTACATGGACCGGTTTTCCCGGTAATCCGTATTTGTG (site TACGGTACTCA),0.582
5,TACGGTGCATGGACCGGTTTTCCCGGTAATCCGTATTTGAC (site TACGGTGCTGT),1.15
6,TACGTGACATGGACCGGTTTTCCCGGTAATCCGTATTTGCT (site TACATGACTAG),1.65
7,TACGTGACATGGACCGGTTTTCCCGGTAATCCGTATTTGCT (site TACCTGACTAG),0.0236
8,TACGTGACATGGACCGGTTTTCCCGGTAATCCGTATTTGCT (site TACGTGACTAG),2.43
9,TACGTGACATGGACCGGTTTTCCCGGTAATCCGTATTTGCT (site TACTTGACTAG),0.238
10,TACTAGGCATGGACCGGTTTTCCCGGTAATCCGTATTTGGT (site TACTAGGCTAC),0.225
11,TACTAGGCATGGACCGGTTTTCCCGGTAATCCGTATTTGGT (site TCCTAGGCTAC),0.0602
12,TACTAGGCATGGACCGGTTTTCCCGGTAATCCGTATTTGGT (site TGCTAGGCTAC),0.0175
13,TACTAGGCATGGACCGGTTTTCCCGGTAATCCGTATTTGGT (site TTCTAGGCTAC),0.00516
14,TACTATGCATGGACCGGTTTTCCCGGTAATCCGTATTTGCG (site TACTATGCTCG),0.64
15,TACTGGACATGGACCGGTTTTCCCGGTAATCCGTATTTGCT (site TACTAGACTAG),0.948
16,TACTGGACATGGACCGGTTTTCCCGGTAATCCGTATTTGCT (site TACTCGACTAG),0.188
17,TACTGGACATGGACCGGTTTTCCCGGTAATCCGTATTTGCT (site TACTGGACTAG),2.01
18,TACTGGACATGGACCGGTTTTCCCGGTAATCCGTATTTGCT (site TACTTGACTAG),0.00209
19,TACTTGACATGGACCGGTTTTCCCGGTAATCCGTATTTGCC (site TACTTGACTAG),0.0078

row,Sequence,recombinant UMI read abundance (log10)
1,TACTTGACATGGACCGGTTTTCCCGGTAATCCGTATTTGCC (site TACTTGACTCG),0.0284
2,TACTTGACATGGACCGGTTTTCCCGGTAATCCGTATTTGCC (site TACTTGACTGG),0
3,TACTTGACATGGACCGGTTTTCCCGGTAATCCGTATTTGCC (site TACTTGACTTG),0.00491
4,TACTTGACATGGACCGGTTTTCCCGGTAATCCGTATTTGTG (site TACTTGACTCA),0.00608
5,TACTTTCCATGGACCGGTTTTCCCGGTAATCCGTATTTGCG (site TACTTTCCTCG),1.29
6,TACTTTCCATGGACCGGTTTTCCCGGTAATCCGTATTTGCT (site TACTTTCCTAG),0.537
7,TACTTTGCATGGACCGGTTTTCCCGGTAATCCGTATTTGGA (site TACTTTGCTTC),0.0143
8,TAGAAATCATGGACCGGTTTTCCCGGTAATCCGTATTTGCG (site TAGAAATCTCG),2.05
9,TAGAAATCATGGACCGGTTTTCCCGGTAATCCGTATTTGCG (site TAGCAATCTCG),1.42
10,TAGAAATCATGGACCGGTTTTCCCGGTAATCCGTATTTGCG (site TAGGAATCTCG),1.44
11,TAGAAATCATGGACCGGTTTTCCCGGTAATCCGTATTTGCG (site TAGTAATCTCG),2.33
12,TAGAACACATGGACCGGTTTTCCCGGTAATCCGTATTTGTC (site TAGAACACTGA),2.34
13,TAGAAGACATGGACCGGTTTTCCCGGTAATCCGTATTTGCC (site TAGAAGACTGG),2.25
14,TAGAATACATGGACCGGTTTTCCCGGTAATCCGTATTTGTA (site TAGAATACTTA),1.55
15,TAGAATACATGGACCGGTTTTCCCGGTAATCCGTATTTGTA (site TAGAATACTTC),0.00357
16,TAGAATACATGGACCGGTTTTCCCGGTAATCCGTATTTGTA (site TAGAATACTTG),0.697
17,TAGAATACATGGACCGGTTTTCCCGGTAATCCGTATTTGTA (site TAGAATACTTT),0.208
18,TAGAATACATGGACCGGTTTTCCCGGTAATCCGTATTTGTG (site TAGAATACTCA),2.01
19,TAGACGACATGGACCGGTTTTCCCGGTAATCCGTATTTGAC (site TAGACGACTGT),2.6
